Assay: xn = mol fraction of the nth substance listed
Details: 102 kPa, Liquid; for viscosity: Concentric cylinders viscometry; for speed of sound: Frequency=3 MHz, Single path-length method; for mass density: Vibrating tube method

CCCCCC1CCCCC1 [pentylcyclohexane] + CCCCCCCCCCCCCCCC
Details | mass density [kg/m3] | speed of sound [m/s] | viscosity [mPa·s]
293.15 K, x1 = 0.2004 | 777.53 | 1354.6 | 3.1
293.15 K, x1 = 0.4 | 782.39 | 1351.9 | 2.74
293.15 K, x1 = 0.4999 | 785.18 | 1350.6 | 2.56
293.15 K, x1 = 0.5999 | 788.23 | 1349.4 | 2.38
293.15 K, x1 = 0.8006 | 795.35 | 1347.2 | 2.03
293.15 K, x1 = 1 | 804.11 | 1345.9 | 1.7
303.15 K, x1 = 0.2004 | 770.57 | 1317.2 | 2.49
303.15 K, x1 = 0.4 | 775.39 | 1314.4 | 2.22
303.15 K, x1 = 0.4999 | 778.15 | 1313 | 2.08
303.15 K, x1 = 0.5999 | 781.16 | 1311.6 | 1.95
303.15 K, x1 = 0.8006 | 788.18 | 1309 | 1.68
303.15 K, x1 = 1 | 796.8 | 1306.4 | 1.42
313.15 K, x1 = 0.2004 | 763.62 | 1280.5 | 2.04
313.15 K, x1 = 0.4 | 768.39 | 1277.6 | 1.83
313.15 K, x1 = 0.4999 | 771.11 | 1276 | 1.73
313.15 K, x1 = 0.5999 | 774.09 | 1274.5 | 1.61
313.15 K, x1 = 0.8006 | 781 | 1271.3 | 1.41
313.15 K, x1 = 1 | 789.47 | 1267.8 | 1.21
323.15 K, x1 = 0.2004 | 756.66 | 1244.5 | 1.7
323.15 K, x1 = 0.4 | 761.38 | 1241.4 | 1.54
323.15 K, x1 = 0.4999 | 764.07 | 1239.7 | 1.46
323.15 K, x1 = 0.5999 | 766.99 | 1237.9 | 1.37
323.15 K, x1 = 0.8006 | 773.8 | 1234.3 | 1.21
323.15 K, x1 = 1 | 782.12 | 1230.1 | 1.04
333.15 K, x1 = 0.2004 | 749.7 | 1209.3 | 1.44
333.15 K, x1 = 0.4 | 754.35 | 1206 | 1.31
333.15 K, x1 = 0.4999 | 757 | 1204.2 | 1.24
333.15 K, x1 = 0.5999 | 759.88 | 1202.3 | 1.18
333.15 K, x1 = 0.8006 | 766.57 | 1198 | 1.03
333.15 K, x1 = 1 | 774.74 | 1193.4 | 0.895
343.15 K, x1 = 0.2004 | 742.8 | – | 1.24
343.15 K, x1 = 0.4 | 747.4 | – | 1.14
343.15 K, x1 = 0.4999 | 749.9 | – | 1.08
343.15 K, x1 = 0.5999 | 752.9 | – | 1.03
343.15 K, x1 = 0.8006 | 759.4 | – | 0.916
343.15 K, x1 = 1 | 767.3 | – | 0.799
353.15 K, x1 = 0.2004 | 735.8 | – | 1.07
353.15 K, x1 = 0.4 | 740.3 | – | 0.985
353.15 K, x1 = 0.4999 | 742.8 | – | 0.937
353.15 K, x1 = 0.5999 | 745.7 | – | 0.903
353.15 K, x1 = 0.8006 | 752.2 | – | 0.809
353.15 K, x1 = 1 | 759.9 | – | 0.709
363.15 K, x1 = 0.2004 | 728.7 | – | 0.955
363.15 K, x1 = 0.4 | 733.2 | – | 0.884
363.15 K, x1 = 0.4999 | 735.6 | – | 0.843
363.15 K, x1 = 0.5999 | 738.5 | – | 0.805
363.15 K, x1 = 0.8006 | 744.8 | – | 0.724
363.15 K, x1 = 1 | 752.4 | – | 0.637

CCCCCCCCCCC1CCCCC1 [decylcyclohexane] + CCCCCCCCCCCCCCCC
Details | mass density [kg/m3] | speed of sound [m/s] | viscosity [mPa·s]
293.15 K, x1 = 0.2 | 781.98 | 1366.2 | 3.73
293.15 K, x1 = 0.4 | 790.75 | 1375.8 | 4.03
293.15 K, x1 = 0.4999 | 795.26 | 1380.7 | 4.19
293.15 K, x1 = 0.6008 | 799.82 | 1385.6 | 4.36
293.15 K, x1 = 0.7237 | 805.48 | 1392 | 4.63
293.15 K, x1 = 1 | 818.55 | 1406.7 | 5.32
303.15 K, x1 = 0.2 | 775.08 | 1329 | 2.95
303.15 K, x1 = 0.4 | 783.89 | 1338.4 | 3.16
303.15 K, x1 = 0.4999 | 788.42 | 1343.3 | 3.29
303.15 K, x1 = 0.6008 | 792.99 | 1348.3 | 3.41
303.15 K, x1 = 0.7237 | 798.67 | 1354.7 | 3.6
303.15 K, x1 = 1 | 811.78 | 1369.4 | 4.09
313.15 K, x1 = 0.2 | 768.19 | 1292.6 | 2.39
313.15 K, x1 = 0.4 | 777.04 | 1301.9 | 2.54
313.15 K, x1 = 0.4999 | 781.59 | 1306.8 | 2.64
313.15 K, x1 = 0.6008 | 786.18 | 1311.8 | 2.73
313.15 K, x1 = 0.7237 | 791.88 | 1318.3 | 2.87
313.15 K, x1 = 1 | 805.02 | 1333 | 3.23
323.15 K, x1 = 0.2 | 761.3 | 1256.8 | 1.97
323.15 K, x1 = 0.4 | 770.2 | 1266.2 | 2.09
323.15 K, x1 = 0.4999 | 774.76 | 1271.1 | 2.18
323.15 K, x1 = 0.6008 | 779.37 | 1276.2 | 2.24
323.15 K, x1 = 0.7237 | 785.08 | 1282.7 | 2.34
323.15 K, x1 = 1 | 798.27 | 1297.5 | 2.62
333.15 K, x1 = 0.2 | 754.42 | 1221.9 | 1.65
333.15 K, x1 = 0.4 | 763.35 | 1231.6 | 1.75
333.15 K, x1 = 0.4999 | 767.92 | 1236.3 | 1.81
333.15 K, x1 = 0.6008 | 772.55 | 1241.5 | 1.87
333.15 K, x1 = 0.7237 | 778.28 | 1248.2 | 1.95
333.15 K, x1 = 1 | 791.5 | 1262.9 | 2.16
343.15 K, x1 = 0.2 | 747.5 | – | 1.42
343.15 K, x1 = 0.4 | 756.5 | – | 1.48
343.15 K, x1 = 0.4999 | 761.3 | – | 1.54
343.15 K, x1 = 0.6008 | 765.8 | – | 1.58
343.15 K, x1 = 0.7237 | 771.6 | – | 1.64
343.15 K, x1 = 1 | 784.8 | – | 1.82
353.15 K, x1 = 0.2 | 740.7 | – | 1.21
353.15 K, x1 = 0.4 | 749.7 | – | 1.28
353.15 K, x1 = 0.4999 | 754.4 | – | 1.32
353.15 K, x1 = 0.6008 | 759 | – | 1.36
353.15 K, x1 = 0.7237 | 764.8 | – | 1.41
353.15 K, x1 = 1 | 778 | – | 1.55
363.15 K, x1 = 0.2 | 733.7 | – | 1.08
363.15 K, x1 = 0.4 | 742.8 | – | 1.1
363.15 K, x1 = 0.4999 | 747.6 | – | 1.17
363.15 K, x1 = 0.6008 | 752.1 | – | 1.18
363.15 K, x1 = 0.7237 | 758 | – | 1.22
363.15 K, x1 = 1 | 771.2 | – | 1.34
373.15 K, x1 = 0.2 | 726.8 | – | 0.926
373.15 K, x1 = 0.4 | 735.9 | – | 0.979
373.15 K, x1 = 0.4999 | 740.7 | – | 1.01
373.15 K, x1 = 0.6008 | 745.2 | – | 1.04
373.15 K, x1 = 0.7237 | 751.1 | – | 1.07
373.15 K, x1 = 1 | 764.4 | – | 1.17

From the NIST ThermoML archive (doi:10.1021/acs.jced.8b00692)
